Test results published in patent publication US11827628B2, “Compositions and methods for inhibition of the JAK pathway” (Rigel Pharmaceuticals, Inc., priority 2005, dated 2023).
Structures can show the parent of a compound that is named as a salt. Where two headings read alike, the source gives them in different places.

Tested on: IL-4 stimulated expression of CD23 in human Ramos B cells (JAK-1 and JAK-3)
Experiment: Assay for Ramos B-Cell Line Stimulated with IL-4 (CD23 upregulation, FACS)
Type: cell-based
Conditions: read-out: IC50, Example 41
Source text: One means of assaying for such inhibition is detection of the effect of the 2,4-substituted pyrimidinediamine compounds on the upregulation of downstream gene products. In the Ramos/IL4 assay, B-cells are stimulated with the cytokine Interleukin-4 (IL-4) leading to the activation of the JAK/Stat pathway through phosphorylation of the JAK family kinases, JAK1 and JAK3, which in turn phosphorylate and activate the transcription factor Stat-6. […] To study the effect of inhibitors (e.g., the 2,4-substituted pyrimindinediamine compounds described herein) on the JAK1 and JAK3 kinases, human Ramos B cells are stimulated with human IL-4. Twenty to 24 hours post stimulation, cells are stained for upregulation of CD23 and analyzed using flow cytometry (FACS). […] An exemplary assay of this type is described in greater detail in Example 41
B-cells stimulated with cytokine Interleukin-4 (IL-4) activate the JAK/Stat pathway through phosphorylation of the JAK family kinases, JAK-1 and JAK-3, which in turn phosphorylate and activate the transcription factor Stat-6. […] To study the effect of inhibitors on the JAK family kinases, human Ramos B cells are stimulated with human IL-4.
The Ramos B-cell line was acquired from ATCC (ATCC Catalog No. CRL-1596). The cells were cultured in RPMI 1640 (Cellgro, MediaTech, Inc., Herndon, VA, Cat No. 10-040-CM) with 10% fetal bovine serum (FBS), heat inactivated (JRH Biosciences, Inc, Lenexa, Kansas, Cat No. 12106-500M) according to ATCC propagation protocol. Cells were maintained at a density of 3.5×10^5. The day before the experiment, Ramos B-cells were diluted to 3.5×10^5 cells/mL to ensure that they were in a logarithmic growth phase.
Cells were spun down and suspended in RPMI with 5% serum. 5×10^4 cells were used per point in a 96-well tissue culture plate. Cells were pre-incubated with compound or DMSO (Sigma-Aldrich, St. Louis, MO, Cat No. D2650) vehicle control for 1 hour in a 37° C. incubator. Cells were then stimulated with IL-4 (Peprotech Inc., Rocky Hill, NJ, Cat No. 200-04) for a final concentration of 50 units/mL for 20-24 hours. Cells were then spun down and stained with anti-CD23-PE(BD Pharmingen, San Diego, CA, Cat No. 555711) and analyzed by FACS. Detection was performed using a BD LSR I System Flow Cytometer, purchased from Becton Dickinson Biosciences of San Jose, California The IC50 calculated based on the results of this assay are provided in TABLE XII.

[1] = Ramos B-cell line stimulated with IL-4, CD23 expression by FACS
[2] = Ramos B-cell line stimulated with IL-4, CD23 expression by FACS, sodium salt
[3] = Ramos B cells stimulated with IL-4, CD23 expression by FACS
[4] = Homo sapiens, Ramos, Ramos B cells stimulated with IL-4, CD23 expression by FACS
[5] = Homo sapiens, Ramos, Ramos B-cell line stimulated with IL-4, CD23 expression by FACS

| SMILES | IC50 [1] [nM] | also measured |
| --- | --- | --- |
| CCC(=O)NS(=O)(=O)c1cccc(Nc2ncc(F)c(Nc3ccc(OCc4cc(C)on4)cc3)n2)c1 [Compound I-236] | 1980 |  |
| CCC(=O)NS(=O)(=O)c1cccc(Nc2ncc(F)c(Nc3ccc(OCc4cc(C)on4)cc3)n2)c1 [Compound I-242, 5-Fluoro-N4-[4-(5-methylisoxazol-3-yl)methyleneoxyphenyl]-N2-(3-N-propanamido)sulfonylphenyl)]-2,4-pyrimidinediamine sodium salt] |  | IC50 [2]: 520 nM |
| CC(=O)NS(=O)(=O)c1cccc(Nc2ncc(F)c(Nc3ccc(OCc4cc(C)on4)cc3)n2)c1 [Compound I-243, N2-(3-Acetamidosulfonylphenyl)-5-fluoro-N4-[4-(5-methylisoxazol-3-yl)methyleneoxyphenyl]-2,4-pyrimidinediamine sodium salt] |  | IC50 [2]: 917 nM |
| Cc1cc(COc2ccc(Nc3nc(Nc4cccc(S(=O)(=O)NCc5oc(=O)oc5C(C)(C)C)c4)ncc3F)cc2)no1 [Compound I-250, N2-{3-[(N-5-t-Butyl-1,3-dioxolene-2-one-4-yl)methylene]aminosulfonylphenyl}-5-fluoro-N4-[4-(5-methylisoxazol-3-yl)methyleneoxyphenyl]-2,4-pyrimidinediamine] | 673 |  |
| CNS(=O)(=O)c1ccc(Nc2ncc(F)c(Nc3ccc(OC(F)(F)F)c(Cl)c3)n2)cc1OC [Compound I-269, 5-fluoro-N2-(4-N-methylaminosulfonyl)-3-methoxyphenyl-N4-(4-trifluoromethoxy-3-chlorophenyl)-2,4-pyrimidinediamine] | 917 |  |
| CNS(=O)(=O)c1ccc(Nc2ncc(F)c(Nc3cccc(O)c3)n2)cc1OC [Compound I-270] | 780 |  |
| Cc1nc(COc2ccc(Nc3nc(Nc4cccc(S(=O)(=O)N5CCN(C)CC5)c4)ncc3F)cc2)no1 [Compound I-274, 5-Fluoro-N4-[4-(5-methyl-1,2,4-oxadiazol-3-yl)methoxy]phenyl-N2-[3-(4-methylpiperazin-1-yl)sulfonyl]phenyl-2,4-pyrimidinediamine] | 1170 |  |
| Cc1ccc(Nc2ncc(F)c(Nc3ccc4c(c3)N(Cc3ccccn3)C(=O)CO4)n2)cc1S(N)(=O)=O [Compound V-2, N2-(3-Aminosulphonyl-4-methylphenyl)-5-fluoro-N4-[3-oxo-4-(2-pyridylmethy)-benz[1,4]oxazin-6-yl]-2,4-pyrimidinediamine] |  | IC50 [3]: 1180 nM |
| Cc1ccc(Nc2ncc(F)c(Nc3ccc4sc(CCC#N)cc4c3)n2)cc1S(N)(=O)=O [Compound V-16, N2-(3-Aminosulfonyl-4-methylphenyl)-N4-(2-cyanoethylene-benzothiophen-5-yl)-5-fluoro-2,4-pyrimidinediamine] |  | IC50 [3]: 8370 nM |
| CCN(CC)S(=O)(=O)c1ccc(OC)c(Nc2nc(Nc3ccc(Cl)c(Cl)c3)cc(C(=O)OC)n2)c1 [Compound X-1, 6-carbonylmethoxy-N4-(3,4-dichlorophenyl)-N2-(3-N,N-diethylaminosulfonyl-6-methoxyphenyl)-2,4-pyrimidinediamine] |  | IC50 [4]: 8250 nM |
| CCN(CC)S(=O)(=O)c1ccc(OC)c(Nc2nc(Nc3ccc4c(c3)NC(=O)C(C)(C)O4)cc(C(=O)OC)n2)c1 [Compound X-2] |  | IC50 [4]: 1840 nM |
| Cc1cc(Nc2nc(Nc3ccc(C)c(S(N)(=O)=O)c3)ncc2F)ccc1OC1CCN(C)CC1 [II-5, N2-(3-Aminosulfonyl-4-methylphenyl)-5-fluoro-N4-{3-methyl-4-[(1-methylpiperidin-4-yl)oxy]phenyl}-2,4-pyrimidinediamine] |  | IC50 [5]: 2210 nM |
| CNS(=O)(=O)c1cc(Nc2ncc(F)c(Nc3ccc(Oc4cccnc4)cc3)n2)ccc1C [II-13, 5-Fluoro-N2-[3-N-(methylaminosulfonyl)-4-methylphenyl]-N4-[4-(3-pyridyloxy)phenyl]-2,4-pyrimidinediamine] | 323 |  |
| N#CCc1ccc(Nc2nc(Nc3ccc(S(N)(=O)=O)cc3)ncc2F)cc1 [III-3, N2-(4-Aminosulfonyl)phenyl-N4-(4-cyanomethyl)phenyl-5-fluoro-2,4-pyrimidinediamine] | 536 |  |
| CN1CCN(S(=O)(=O)c2cccc(Nc3ncc(F)c(Nc4ccc(CC#N)cc4)n3)c2)CC1 [III-5, N4-(4-Cyanomethyl)phenyl-5-fluoro-N2-[3-(4-methylpiperazin-1-yl)sulfonyl]phenyl-2,4-pyrimidinediamine] | 4980 |  |
| Cc1cc(CCC#N)ccc1Nc1nc(Nc2ccc(C)c(S(N)(=O)=O)c2)ncc1F [III-23, N2-(3-Aminosulfonyl-4-methylphenyl)-N4-(4-cyanoethylene-2-methylphenyl)-5-fluoro-2,4-pyrimidinediamine] | 397 |  |
| CCC(=O)NCc1ccc(Nc2nc(Nc3ccc(S(N)(=O)=O)cc3)ncc2F)cc1 [III-35, N2-(4-aminosulfonyl)phenyl-N4-(4-ethylcarbonylaminomethyl)phenyl-5-fluoro-2,4-pyrimidinediamine] | 1080 |  |
| NS(=O)(=O)c1ccc(Nc2ncc(F)c(Nc3ccc(CNC(=O)C4CC4)cc3)n2)cc1 [III-41, N2-(4-aminosulfonyl)phenyl-N4-(4-cyclopropylcarbonylaminomethyl)phenyl-5-fluoro-2,4-pyrimidinediamine] | 1010 |  |
| C=CC(=O)NCc1ccc(Nc2nc(Nc3ccc(S(N)(=O)=O)cc3)ncc2F)cc1 [III-44, N4-(4-Acrylamidomethylphenyl)-N2-(4-aminosulfonylphenyl)-5-fluoro-2,4-pyrimidinediamine] |  | IC50 [5]: 1430 nM |
| NC(=O)CCc1ccc(Nc2nc(Nc3ccc(S(N)(=O)=O)cc3)ncc2F)cc1 [III-49, N4-[4-(2-Aminocarboxylethylene)phenyl]-N2-(4-aminosulfonylphenyl)-5-fluoro-2,4-pyrimidinediamine] | 178 |  |
| CCn1nccc1NC(=O)Cc1ccc(Nc2nc(Nc3cccc(S(N)(=O)=O)c3)ncc2F)cc1 [III-51, N2-(3-Aminosulfonylphenyl)-N4-[(1-ethylpyrazolyl-5-aminocarbonylmethylene)phenyl]-5-fluoro-2,4-pyrimidinediamine] | 1010 |  |
| CCC(=O)NS(=O)(=O)c1cccc(Nc2ncc(F)c(Nc3ccc(Cc4ccncc4)cc3)n2)c1 [III-68] | 3230 |  |
| CCC(=O)NS(=O)(=O)c1cccc(Nc2ncc(F)c(Nc3ccc(Cc4ccncc4)cc3)n2)c1 [III-69, 5-Fluoro-N4-[4-(4-pyridinylmethyl)phenyl]-N2-[(3-N-propanamido)sulfonylphenyl)]-2,4-pyrimidinediamine sodium salt] |  | IC50 [2]: 3320 nM |
| CCN(CC)CCNS(=O)(=O)c1ccc(Nc2ncc(F)c(Nc3ccc(Cc4ccncc4)cc3)n2)cc1 [III-72, N2-[4-(2-N,N-Diethylaminoethyl)aminosulfonylphenyl)-5-fluoro-N4-[4-(4-pyridinylmethyl)phenyl]-2,4-pyrimidinediamine] | 1950 |  |
| CNS(=O)(=O)c1cc(Nc2ncc(F)c(NCCc3ccc(-n4ccnc4)cc3)n2)ccc1C [III-89, 5-Fluoro-N2-[3-(N-methylaminosulfony)-4-methylphenyl]-N4-[4-(1-imidazolyl)phenethyl]-2,4-pyrimidinediamine] |  | IC50 [3]: 115 nM |
| COc1ccc(Nc2ncc(F)c(Nc3ccc(CN4CCOCC4)cc3)n2)cc1S(N)(=O)=O [III-105, N2-(3-Aminosulfonyl-4-methyleneoxyphenyl)-5-fluoro-N4-(4-N-morpholinomethylenephenyl)-2,4-pyrimidinediamine] |  | IC50 [3]: 1280 nM |
| COc1ccc(Nc2ncc(F)c(Nc3ccc(CN4CCS(=O)(=O)CC4)cc3)n2)cc1S(N)(=O)=O [III-112, N2-(3-Aminosulfonyl-4-methyloxyphenyl)-5-fluoro-N4-{4-[(1,1-dioxothiomorpholin-4-yl-)methyl]phenyl}-2,4-pyrimidinediamine] |  | IC50 [3]: 2480 nM |
| NC(=O)NCc1cccc(Nc2nc(Nc3cccc(S(N)(=O)=O)c3)ncc2F)c1 [III-114, N4-(3-aminocarbonylaminomethyl)phenyl-N2-(3-aminosulfonyl)phenyl-5-fluoro-2,4-pyrimidinediamine] |  | IC50 [3]: 2680 nM |
| Cc1ccc(Nc2ncc(F)c(Nc3cccc(CNC(N)=O)c3)n2)cc1S(N)(=O)=O [III-115, N4-(3-aminocarbonylaminomethyl)phenyl-N2-(3-aminosulfonyl-4-methyl)phenyl-5-fluoro-2,4-pyrimidinediamine] |  | IC50 [3]: 1650 nM |
